Laboratory results: patent publication US20230398234A1, “NOVEL FUNGAL COMPOIND FORMULATIONS AND THEIR THERAPEUTIC METHODS OF USE” (priority 2020, published 2023)

Conditions: UPLC quantification of cordycepin; variable mass ratios; FIG. 2

## Nc1ncnc2c1ncn2[C@@H]1O[C@H](CO)C[C@H]1O [Cordycepin, 3′-deoxyadenosine]
  solubility of Cordycepin in Cordyceps extract, TPGS solution vs pure water: did not increase the solubility
